Tests used:
ROCKII (1-543) [1] = biological target: T1, ROCKII (1-543) (Homo sapiens (Human), UniProt O75116); assay: Luciferin-Luciferase Assay (PKLight ATP detection); format: biochemical; conditions: 750 nM ATP, 500 nM peptide, 7.5 nM kinase
Procedure: 1. Luciferin-Luciferase Assay
The activity of ROCKII (1-543) kinase was measured utilizing Cambrex PKLight ATP Detection Reagent, a homogeneous assay technology using luciferin-luciferase to quantify residual ATP. The assay was performed in 384-well low-volume, white, non-binding surface microtiter plates (Corning). The assay buffer was 25 mM HEPES, pH 7.5, 10 mM MgCl2, 50 mM KCl, 0.2% BSA, 0.01% CHAPS, 100 μM Na3VO4 and 0.5 mM DTT. Test compounds, dissolved in neat DMSO at 500 μg/mL, were serially diluted for dose response for a final starting concentration of 3 μg/mL in 1% DMSO of assay buffer. ROCKII (1-543) (62,408Da) was diluted in assay buffer to a final concentration of 7.5 nM in a total volume of 15 μL. Positive controls were reaction mixtures containing no test compound; negative controls (blanks) were reaction mixtures containing no kinase. After 15 minutes of pre-incubation of the test compounds with the kinase, a mixture of ATP and peptide substrate ([…]) in assay buffer was added to each well for a final concentration of 750 nM ATP and 500 nM peptide, respectively. After 90 minutes of incubation of the kinase reaction at 28° C. temperature, 10 μL of PKLight ATP Detection Reagent (warmed to room temperature previously) was added to each well. The assay plate was incubated at room temperature for additional 15 minutes and then read on an Analyst in luminescence mode. Dose-response experiments for each of the test compounds were conducted in quadruplet. IC50 values of test compounds represent 50% response of the positive control from the dose-response curve.
Target sequence in this assay (O75116 1-543): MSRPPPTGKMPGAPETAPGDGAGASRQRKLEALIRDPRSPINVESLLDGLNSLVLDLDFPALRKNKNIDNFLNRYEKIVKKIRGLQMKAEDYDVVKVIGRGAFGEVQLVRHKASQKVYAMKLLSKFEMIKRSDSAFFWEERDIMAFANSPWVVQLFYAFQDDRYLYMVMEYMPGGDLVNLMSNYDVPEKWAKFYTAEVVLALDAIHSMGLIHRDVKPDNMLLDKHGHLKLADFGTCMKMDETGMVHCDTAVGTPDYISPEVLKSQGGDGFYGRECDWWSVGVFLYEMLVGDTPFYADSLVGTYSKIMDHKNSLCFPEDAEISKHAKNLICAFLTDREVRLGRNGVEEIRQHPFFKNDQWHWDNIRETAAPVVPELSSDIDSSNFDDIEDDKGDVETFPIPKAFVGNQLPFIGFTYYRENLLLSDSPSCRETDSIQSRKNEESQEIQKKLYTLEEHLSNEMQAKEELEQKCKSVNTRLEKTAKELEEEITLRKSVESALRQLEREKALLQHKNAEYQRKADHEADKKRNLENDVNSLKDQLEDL

ROCKII (1-543) [2] = biological target: T1, ROCKII (1-543); assay: IMAP Assay (fluorescence polarization, FAM S6 peptide); format: biochemical; conditions: 100 μM ATP, 200 nM FAM S6 peptide, 1 nM kinase; read-out: Assay 2 IC50
Procedure: This assay is performed using FAM S6 substrate peptide (Catalogue #R7184) and IMAP FP Screening Express Kit detection reagents from Molecular Devices (Sunnyvale, Calif.) in IMAP kinase reaction buffer (Tris-HCl, pH 7.2, 10 mM MgCl2, 0.05% NaN3, 0.1% phosphate-free BSA) containing 1 mM DTT. Test compounds dissolved in neat DMSO at 0.3 mg/mL are serially diluted 1 to 3 for concentration response in 100% DMSO. The DMSO serial dilutions are further diluted 33.33-fold in kinase reaction buffer, and 10 μL of this buffer dilution is transferred to Corning black 96-well half area NBS plates for a final top concentration of 3 μg/mL in 1% DMSO. 10 μL aliquot of 3 nM ROCKII (1-543) diluted in kinase reaction buffer is added to each assay well for a final concentration of 1 nM kinase. 10 μL of a mixture of 600 nM FAM S6 peptide and 300 μM ATP diluted in kinase reaction buffer is added to each well for a final concentration of 200 nM peptide and 100 μM ATP. The kinase reaction mixture is incubated for 60 minutes at room temperature. Positive controls are reaction mixtures containing no test compound and negative controls (blanks) are reaction mixtures containing no kinase. The kinase reaction is stopped by addition of 60 μL IMAP progressive binding reagent (Catalog #R7284) diluted 400-fold in 1× Binding buffer A. After 30 min of incubation at room temperature, the plates are read for fluorescence polarization on Analyst Plate Reader using Ex 485 nm, Em 530 nm, and FL 505 dichroic mirror. The mP signals are converted to percent of control (POC) values using the formula: POC=100*(Signal−BCTRL)÷(PCTRL−BCTRL)
Where Signal is the test well signal, BCTRL is the average of background (negative control) well signals on the plate and PCTRL is the average of positive control well signals on the plate. For the concentration-responsive compounds, POC as a function of test compound concentration is fitted to a 4-parameter logistic equation of the form: Y=A+(B−A)/[1+(x/C)D] Where A, B, C, and D are fitted parameters (parameter B is fixed at zero POC), and x and y are the independent and dependent variables, respectively. The IC50 is determined as the inflection point parameter, C.
Target sequence in this assay (O75116 1-543, species assumed): as the sequence (O75116 1-543) above

IC50 (ROCKII (1-543) [1]) [µM]	IC50 (ROCKII (1-543) [2]) [µM]	Structure (SMILES)
0.0575		C[C@@H](NC(=O)Nc1ccc(C#N)cc1)c1cccc(C(=O)Nc2ccc3c(c2)CN(C)CC3)c1 [Compound 149]
	0.0003	CN(C)[C@H]1CCc2nc(NC(=O)c3cccc([C@H]4CCCN4C(=O)Nc4cccc(C#N)c4)c3)sc2C1 [Compound 37]
0.0393		CN1CCc2nc(NC(=O)c3cccc(C4CCCCN4C(=O)Nc4cccc(C#N)c4)c3)sc2C1 (centres unmarked) [Compound 111]
0.0125		N#Cc1cccc(NC(=O)N2CCC[C@@H]2c2cccc(C(=O)Nc3nc4c(s3)CN(Cc3ccccc3)CC4)c2)c1 [Compound 105]
	0.0017	N#Cc1ccn2cc(C(=O)N3CCC[C@@H]3c3cccc(C(=O)Nc4nc5c(s4)C[C@@H](N4CCOCC4)CC5)c3)nc2c1 [Compound 82]
0.0231		CC[C@@H](NC(=O)Nc1ccc(C#N)cc1)c1cccc(C(=O)Nc2nc3c(s2)CN(C)CC3)c1 [Compound 12]
0.0457		CN1CCc2nc(NC(=O)c3cccc([C@H](NC(=O)Nc4ccc(C#N)cc4)C4CC4)c3)sc2C1 [Compound 157]
0.0189		C[C@@H](NC(=O)Nc1cccc(C#N)c1)c1cccc(C(=O)Nc2ccc3c(c2)CN(C)CC3)c1 [Compound 147]
0.0178		N#Cc1cccc(NC(=O)N2CCCC2c2cccc(C(=O)Nc3ccc4c(c3)CNCC4)c2)c1 (centres unmarked) [Compound 47, 2-[3-(1,2,3,4-tetrahydro-isoquinolin-7-ylcarbamoyl)-phenyl]-pyrrolidine-1-carboxylic acid (3-cyano-phenyl)-amide trifluoroacetic acid]
0.0115		N#Cc1cccc(NC(=O)N2CCC[C@@H]2c2cccc(C(=O)Nc3ccc4c(c3)CNCC4)c2)c1 [Compound 53]
0.0095		CN1CCc2ccc(NC(=O)c3cccc([C@H]4CCCN4C(=O)Nc4cccc(C#N)c4)c3)cc2C1 [Compound 109]
0.0089		COc1ccc(C(=O)N[C@H](C)c2cccc(C(=O)Nc3ccc4c(c3)CN(C)CC4)c2)cc1OC [Compound 141]
0.014		COc1ccc(C(=O)N[C@H](C)c2cccc(C(=O)Nc3ccc4c(c3)CN(C)CC4)c2)cc1Cl [Compound 143]
0.035		C[C@@H](Oc1cccc(C(=O)Nc2nc3c(s2)CN(C)CC3)c1)C(=O)Nc1ccc(C#N)cc1 [Compound 19, 3-[(R)-1-(4-cyano-phenylcarbamoyl)-ethoxy]-N-(5-methyl-4,5,6,7-tetrahydro-thiazolo[5,4-c]pyridin-2-yl)-benzamide]
0.0097		CN1CCc2nc(NC(=O)c3cccc([C@H](NC(=O)Nc4cccc(C#N)c4)C4CC4)c3)sc2C1 [Compound 155]
0.0449		CN1CCc2nc(NC(=O)c3cccc([C@H]4CCCN4C(=O)c4ccc(-c5cc[nH]n5)cc4)c3)sc2C1 [Compound 86]
0.0775		CN1CCc2nc(NC(=O)c3cccc(C4CCCN(C(=O)Nc5cccc(C#N)c5)C4)c3)sc2C1 (centres unmarked) [Compound 115]
0.0212		CN1CCc2nc(NC(=O)c3cccc([C@H]4CNC[C@@H]4C(=O)Nc4ccc(C#N)cc4)c3)sc2C1 [Compound 15]
0.0191		CN1CCc2nc(NC(=O)c3cccc(N4CCC[C@@H]4C(=O)Nc4ccc(C#N)cc4)c3)sc2C1 [Compound 5, (R)-1-[3-(5-methyl-4,5,6,7-tetrahydro-thiazolo[5,4-c]pyridin-2-ylcarbamoyl)-phenyl]-pyrrolidine-2-carboxylic acid (4-cyano-phenyl)-amide]
	0.0008	CN(C)[C@H]1CCc2nc(NC(=O)c3cccc([C@H]4CCCN4C(=O)c4cc(-c5ccncc5)[nH]n4)c3)sc2C1 [Compound 96]
	0.002	CN(C)[C@H]1CCc2nc(NC(=O)c3cccc([C@H]4CCCN4C(=O)c4csc(-c5ccncc5)n4)c3)sc2C1 [Compound 94]
0.0105		COc1ccc(C(=O)N[C@H](C)c2cccc(C(=O)Nc3ccc4c(c3)CN(C)CC4)c2)cc1C [Compound 145]
0.0038		CC[C@@H](NC(=O)c1ccc(OC)c(Cl)c1)c1cccc(C(=O)Nc2nc3c(s2)CN(C)CC3)c1 [Compound 14]

IC50 (ROCKII (1-543) [1]) [µM]	IC50 (ROCKII (1-543) [2]) [µM]	Structure (SMILES)
0.0744		CN1CCc2nc(NC(=O)c3cccc(C4CCCN4C(=O)Nc4ccc(C#N)cc4)c3)sc2C1 (centres unmarked) [Compound 61]
	0.0021	CN(C)[C@H]1CCc2nc(NC(=O)c3cccc([C@H]4CCCN4C(=O)c4ccc(-c5cnco5)cc4)c3)sc2C1 [Compound 90]
0.0255		CN1CCc2nc(NC(=O)c3cccc([C@H]4CCCN4C(=O)c4cn5cc(C#N)ccc5n4)c3)sc2C1 [Compound 150]
0.0187		CN1CCc2nc(NC(=O)c3cccc(C4CCCCN4C(=O)Nc4ccc(C#N)cc4)c3)sc2C1 (centres unmarked) [Compound 117]
	0.0017	CN(C)[C@H]1CCc2nc(NC(=O)c3cccc([C@H]4CCCN4C(=O)c4cn5cc(C(N)=O)ccc5n4)c3)sc2C1 [Compound 104]
0.0381		CCCC[C@@H](NC(=O)c1ccc(OC)c(Cl)c1)c1cccc(C(=O)Nc2nc3c(s2)CN(C)CC3)c1 [Compound 8]
0.0209		N#Cc1cccc(NC(=O)N2CCCC2c2cccc(C(=O)Nc3nc4c(s3)CN(Cc3ccccc3)CC4)c2)c1 (centres unmarked) [Compound 57]
0.0224		CN1CCc2ccc(NC(=O)c3cccc(C4CCCN4C(=O)Nc4cccc(C#N)c4)c3)cc2C1 (centres unmarked) [Compound 59]
0.0057		CC[C@@H](NC(=O)Nc1cccc(C#N)c1)c1cccc(C(=O)Nc2nc3c(s2)CN(C)CC3)c1 [Compound 10]
	0.002	CN(C)[C@H]1CCc2nc(NC(=O)c3cccc([C@H]4CCCN4C(=O)c4ccc5cc(O)ccc5c4)c3)sc2C1 [Compound 100]
0.0028		COc1ccc(C(=O)N[C@@H](c2cccc(C(=O)Nc3nc4c(s3)CN(C)CC4)c2)C2CC2)cc1Cl [Compound 2]
0.0224		C[C@@H](NC(=O)Nc1ccc(C#N)cc1)c1cccc(C(=O)Nc2nc3c(s2)CN(C)CC3)c1 [Compound 85]
0.0153		CN1CCc2nc(NC(=O)c3cccc([C@H]4CCCN4C(=O)Nc4ccc(C#N)cc4)c3)sc2C1 [Compound 38]
	0.0019	CN(C)[C@H]1CCc2nc(NC(=O)c3cccc([C@H]4CCCN4C(=O)c4cccc(-c5cn[nH]c5)c4)c3)sc2C1 [Compound 106]
0.0095		C[C@@H](NC(=O)Nc1ccc(C(N)=O)cc1)c1cccc(C(=O)Nc2ccc3c(c2)CN(C)CC3)c1 [Compound 153]
0.0955		CN1CCc2nc(NC(=O)c3cccc(N4CCC[C@@H]4C(=O)Nc4cccc(C#N)c4)c3)sc2C1 [Compound 21]
0.0378		C[C@H](NC(=O)Nc1ccc(C#N)cc1)c1cccc(C(=O)Nc2nc3c(s2)CN(C)CC3)c1 [Compound 83]
0.0054		CN1CCc2nc(NC(=O)c3cccc(C4CCCN4C(=O)Nc4ccc(C(N)=O)cc4)c3)sc2C1 (centres unmarked) [Compound 77]
0.0224		CCCC[C@@H](NC(=O)Nc1cccc(C#N)c1)c1cccc(C(=O)Nc2nc3c(s2)CN(C)CC3)c1 [Compound 4]
0.0334		Cc1c(C(=O)N2CCC[C@@H]2c2cccc(C(=O)Nc3nc4c(s3)CN(C)CC4)c2)nnn1-c1nonc1N [Compound 30]
0.0125		Cc1nc(-c2ccncc2)sc1C(=O)N1CCC[C@@H]1c1cccc(C(=O)Nc2nc3c(s2)CN(C)CC3)c1 [Compound 24]
0.0055		C[C@@H](NC(=O)Nc1cccc(C#N)c1)c1cccc(C(=O)Nc2nc3c(s2)CN(C)CC3)c1 [Compound 81]
0.0208		CN1CCc2nc(NC(=O)c3cccc([C@H]4CCCN4C(=O)c4ccc5[nH]c(=O)ccc5c4)c3)sc2C1 [Compound 84]

Structure (SMILES)	IC50 (ROCKII (1-543) [1]) [µM]	IC50 (ROCKII (1-543) [2]) [µM]
CN1CCc2nc(NC(=O)c3cccc(C4CCCN4C(=O)Nc4cccc(C#N)c4)c3)sc2C1 (centres unmarked) [Compound 55]	0.0088	
